# Reference: PubChem BioAssay AID2433 (Vanderbilt High Throughput Screening Facility, 2010)
# Activity calls are given as the source filed them.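 The calls were made as follows: active = a concentration-response curve whose fit quality R2 exceeds 0.5; inactive = the rest.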
# Target: Muscarinic acetylcholine receptor M5 (Homo sapiens) (UniProt P08912)
# Assay: potentiation of ACh calcium response at M5 – cell-based, CHO-K1 M5, Fluo-4 calcium, ACh EC20, selectivity assay for M1 muscarinic PAM project, dose response (AID 2433)
# Conditions: CHO-K1 M5 cells; for % of max ACh response: at 30 µM (top of the series)
# Muscarinic acetylcholine receptor M5 (Homo sapiens), sequence (P08912 whole entry, looked up): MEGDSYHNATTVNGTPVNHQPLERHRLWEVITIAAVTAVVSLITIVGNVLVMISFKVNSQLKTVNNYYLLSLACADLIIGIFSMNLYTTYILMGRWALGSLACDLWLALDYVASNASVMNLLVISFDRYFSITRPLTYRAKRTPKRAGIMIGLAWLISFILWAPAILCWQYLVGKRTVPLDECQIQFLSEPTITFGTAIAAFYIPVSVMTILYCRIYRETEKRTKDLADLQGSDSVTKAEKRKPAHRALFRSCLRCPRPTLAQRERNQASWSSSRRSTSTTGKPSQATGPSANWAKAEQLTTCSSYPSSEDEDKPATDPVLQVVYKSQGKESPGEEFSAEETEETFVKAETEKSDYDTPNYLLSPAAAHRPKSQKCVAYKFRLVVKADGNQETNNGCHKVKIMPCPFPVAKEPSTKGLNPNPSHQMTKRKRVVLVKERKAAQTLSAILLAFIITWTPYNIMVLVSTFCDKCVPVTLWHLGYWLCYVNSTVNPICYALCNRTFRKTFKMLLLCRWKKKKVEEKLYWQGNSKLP
% of max ACh response,EC50,Structure (SMILES)
inactive,,Cn1cc(-c2cc(F)c(CN3C(=O)C(=O)c4ccccc43)c(F)c2)cn1
,inactive,Cn1cc(-c2ccc(CN3C(=O)C(=O)c4ccccc43)cc2)cn1
inactive,,Cn1cc(-c2ccc(CN3C(=O)C(=O)c4ccccc43)c(F)c2)cn1
